Like-named read-outs stand apart in the source and are kept apart here.
How the values were obtained:
[1] = test system: corn; experiment: Test B pre-/postemergence herbicide test; format: in vivo, Zea mays
Method in brief: (§1)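 Response was scored visually 13 to 15 days after treatment against untreated greenhouse controls, 0 meaning no effect and 100 complete control. Formulations (solvent mixture plus surfactant) went onto soil after planting, onto foliage of 1- to 4-leaf plants, and onto 2-leaf plants in a flooded paddy set including rice and barnyardgrass.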

[2] = test system: large crabgrass; experiment: Test B pre-/postemergence herbicide test; format: in vivo, Digitaria sanguinalis
Method in brief: as §1

[3] = test system: Surinam grass; experiment: Test C pre-/postemergence herbicide test; format: in vivo, Urochloa decumbens
Method in brief: (§2)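 Visual injury scores run from 0 (no effect) to 100 (complete control), assessed relative to untreated controls 12 to 14 days after treatment in the greenhouse. Chemicals were formulated in a non-phytotoxic solvent mixture with surfactant and applied to soil after planting or to emerged plants at the 1- to 4-leaf stage.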

[4] = test system: cocklebur; experiment: Test C pre-/postemergence herbicide test; format: in vivo, Xanthium strumarium
Method in brief: as §2

[5] = test system: eastern black nightshade; experiment: Test C pre-/postemergence herbicide test; format: in vivo, Solanum ptycanthum
Method in brief: as §2

[6] = test system: pigweed; experiment: Test C pre-/postemergence herbicide test; format: in vivo, Amaranthus retroflexus
Method in brief: as §2

[7] = test system: soybean; experiment: Test C pre-/postemergence herbicide test; format: in vivo, Glycine max
Method in brief: as §2

[8] = test system: velvetleaf; experiment: Test C pre-/postemergence herbicide test; format: in vivo, Abutilon theophrasti
Method in brief: as §2

[9] = 125 g ai/ha, 0 = no effect, 100 = complete control, preemergence
[10] = 500 g ai/ha, visual rating 0-100, 0 no effect, 100 complete control, preemergence
[11] = postemergence, 125 g ai/ha, visual rating, scale 0 (no effect) to 100 (complete control)
[12] = postemergence, 500 g ai/ha, visual rating, scale 0 (no effect) to 100 (complete control)
[13] = 62 g ai/ha, preemergence, scale 0 to 100
[14] = 125 g ai/ha, scale 0 (no effect) to 100 (complete control), visual, 12 to 14 days, preemergence
[15] = Preemergence, 500 g ai/ha, scale 0 to 100, 0 no effect, 100 complete control
[16] = 125 g ai/ha, 0 is no effect, 100 is complete control, preemergence

CCc1nn(C(C)(C)C)cc1C(=O)Nc1cccc(C(C)=NO)c1 [Compound 188]
Corn plant response rating (0 to 100 scale) [1, 9]: 10 | Plant response rating, Corn [1, 10]: 50 | Corn plant response rating [1, 11]: 10 | Corn plant response rating [1, 12]: 20 | Crabgrass, Large plant response rating (0 to 100 scale) [2, 9]: 100 | Plant response rating, Crabgrass, Large [2, 10]: 100 | Crabgrass, Large plant response rating [2, 11]: 10 | Crabgrass, Large plant response rating [2, 12]: 10 | Plant response rating, Surinam Grass [3, 13]: 20 | Plant response rating, Surinam Grass [3, 14]: 30 | Surinam Grass plant response rating [3, 15]: 80 | Plant response rating, Cocklebur [4, 13]: 0 | Plant response rating, Cocklebur [4, 14]: 0 | Plant response rating, Cocklebur ([4]; 250 g ai/ha, scale 0 to 100 (0 no effect, 100 complete control), visual, 12 to 14 days, preemergence): 0 | Cocklebur plant response rating [4, 15]: 0 | Plant response rating, Nightshade [5, 13]: 80 | Plant response rating, Nightshade [5, 14]: 95 | Nightshade plant response rating [5, 15]: 100 | Plant response rating, Pigweed [6, 13]: 95 | Plant response rating, Pigweed [6, 14]: 95 | Pigweed plant response rating [6, 15]: 100 | Plant response rating, Soybean [7, 13]: 0 | Plant response rating, Soybean [7, 14]: 0 | Soybean plant response rating [7, 15]: 0 | Plant response rating, Velvetleaf [8, 13]: 0 | Plant response rating, Velvetleaf [8, 14]: 0 | Velvetleaf plant response rating [8, 15]: 75

CCNC(=O)c1ccc(F)c(NC(=O)C2CN(C(C)(C)C)N=C2CC)c1 (centres unmarked) [Compound 336, 1-(1,1-dimethylethyl)-3-ethyl-N-[5-[(ethylamino)carbonyl]-2-fluorophenyl]-4,5-dihydro-1H-pyrazole-4-carboxamide]
Plant response rating (0 to 100 scale), Corn [1, 16]: 50 | plant injury at 125 g/ha ([1]; Zea mays, post-emergence, 125 g ai/ha, visual rating, scale 0 (no effect) to 100 (complete control), read-out: Corn plant response rating): 10% | plant injury at 500 g/ha ([1]; Zea mays, post-emergence, postemergence, 500 g ai/ha, scale 0 to 100, 0 is no effect, 100 is complete control, read-out: Corn plant response rating): 20% | Corn plant response rating (crop injury, 0 = no effect, 100 = complete kill) at 500 g/ha ([1]; Zea mays, pre-emergence, 500 g ai/ha, visual rating, 0 = no effect, 100 = complete control): 100% | Plant response rating (0 to 100 scale), Crabgrass, Large [2, 16]: 90 | pest or weed control at 125 g/ha ([2]; Digitaria sanguinalis, post-emergence, 125 g ai/ha, visual rating, scale 0 (no effect) to 100 (complete control), read-out: Crabgrass, Large plant response rating): 20% | pest or weed control at 500 g/ha ([2]; Digitaria sanguinalis, post-emergence, postemergence, 500 g ai/ha, scale 0 to 100, 0 is no effect, 100 is complete control, read-out: Crabgrass, Large plant response rating): 50% | pest or weed control at 500 g/ha ([2]; Digitaria sanguinalis, pre-emergence, 500 g ai/ha, visual rating, 0 = no effect, 100 = complete control, read-out: Plant response rating, Crabgrass, Large): 100% | pest or weed control at 62 g/ha ([3]; Urochloa decumbens, pre-emergence, 312 h, 62 g ai/ha, preemergence, scale 0 to 100, read-out: Plant response rating, Surinam Grass): 50% | pest or weed control at 250 g/ha ([3]; Urochloa decumbens, pre-emergence, 312 h, 250 g ai/ha, scale 0-100, read-out: Plant response rating, Surinam Grass): 100% | pest or weed control at 500 g/ha ([3]; Urochloa decumbens, pre-emergence, 312 h, 500 g ai/ha, scale 0 to 100 (0 no effect, 100 complete control), visual, 12 to 14 days, read-out: Plant response rating, Surinam Grass): 100% | pest or weed control at 62 g/ha ([4]; Xanthium strumarium, pre-emergence, 312 h, 62 g ai/ha, preemergence, scale 0 to 100, read-out: Plant response rating, Cocklebur): 0% | pest or weed control at 125 g/ha ([4]; Xanthium strumarium, pre-emergence, 312 h, 125 g ai/ha, scale 0 (no effect) to 100 (complete control), visual, 12 to 14 days, read-out: Plant response rating, Cocklebur): 5% | pest or weed control at 250 g/ha ([4]; Xanthium strumarium, pre-emergence, 312 h, 250 g ai/ha, scale 0-100, read-out: Plant response rating, Cocklebur): 30% | pest or weed control at 500 g/ha ([4]; Xanthium strumarium, pre-emergence, 312 h, 500 g ai/ha, scale 0 to 100 (0 no effect, 100 complete control), visual, 12 to 14 days, read-out: Plant response rating, Cocklebur): 50% | pest or weed control at 62 g/ha ([5]; pre-emergence, 62 g ai/ha, preemergence, scale 0 to 100, read-out: Plant response rating, Nightshade): 85% | pest or weed control at 125 g/ha ([5]; pre-emergence, 125 g ai/ha, scale 0 (no effect) to 100 (complete control), visual, 12 to 14 days, read-out: Plant response rating, Nightshade): 95% | pest or weed control at 250 g/ha ([5]; pre-emergence, 250 g ai/ha, scale 0-100, read-out: Plant response rating, Nightshade): 100% | pest or weed control at 500 g/ha ([5]; pre-emergence, 500 g ai/ha, scale 0 to 100 (0 no effect, 100 complete control), visual, 12 to 14 days, read-out: Plant response rating, Nightshade): 100% | pest or weed control at 62 g/ha ([6]; Amaranthus retroflexus, pre-emergence, 62 g ai/ha, preemergence, scale 0 to 100, read-out: Plant response rating, Pigweed): 100% | pest or weed control at 125 g/ha ([6]; Amaranthus retroflexus, pre-emergence, 125 g ai/ha, scale 0 (no effect) to 100 (complete control), visual, 12 to 14 days, read-out: Plant response rating, Pigweed): 100% | pest or weed control at 250 g/ha ([6]; Amaranthus retroflexus, pre-emergence, 250 g ai/ha, scale 0-100, read-out: Plant response rating, Pigweed): 100% | pest or weed control at 500 g/ha ([6]; Amaranthus retroflexus, pre-emergence, 500 g ai/ha, scale 0 to 100 (0 no effect, 100 complete control), visual, 12 to 14 days, read-out: Plant response rating, Pigweed): 100% | plant injury at 62 g/ha ([7]; Glycine max, pre-emergence, 62 g ai/ha, preemergence, scale 0 to 100, read-out: Plant response rating, Soybean): 0% | plant injury at 250 g/ha ([7]; Glycine max, pre-emergence, 250 g ai/ha, scale 0-100, read-out: Plant response rating, Soybean): 50% | plant injury at 500 g/ha ([7]; Glycine max, pre-emergence, 500 g ai/ha, scale 0 to 100 (0 no effect, 100 complete control), visual, 12 to 14 days, read-out: Plant response rating, Soybean): 100% | pest or weed control at 62 g/ha ([8]; Abutilon theophrasti, pre-emergence, 62 g ai/ha, preemergence, scale 0 to 100, read-out: Plant response rating, Velvetleaf): 5% | pest or weed control at 250 g/ha ([8]; Abutilon theophrasti, pre-emergence, 250 g ai/ha, scale 0-100, read-out: Plant response rating, Velvetleaf): 100% | pest or weed control at 500 g/ha ([8]; Abutilon theophrasti, pre-emergence, 500 g ai/ha, scale 0 to 100 (0 no effect, 100 complete control), visual, 12 to 14 days, read-out: Plant response rating, Velvetleaf): 100%

Reference: patent publication US20060069132A1, “Azolecarboxamide herbicides” (priority 2004, published 2006)
